Tests used:
Assay in all cases: MIC and checkerboard (FIC) assay
CA-MRSA strain ST30 = assay type: cell-based, Staphylococcus aureus
[1] = tested on: clinical fusidic acid resistant MRSA strain 82356; assay type: cell-based, Staphylococcus aureus; details: for FIC / MIC combine: 82356
[2] = tested on: clinical fusidic acid resistant MRSA strain 73621; assay type: cell-based, Staphylococcus aureus; details: for FIC / MIC combine: 73621
[3] = tested on: S. aureus SA-APH2″-AAC6′ (APH2), resistant to gentamicin
[4] = tested on: S. aureus SA-ANT4′ (ANT4), resistant to fusidic acid; details: for FIC / MIC combine: ANT4
MRSA SA-ST239 = tested on: MRSA SA-ST239
[5] = tested on: S. aureus ATCC25923 (methicillin sensitive); details: Staphylococcus aureus
CA MRSA W44 = tested on: CA MRSA W44
CA MRSA W45 = tested on: CA MRSA W45
CA MRSA W46 = tested on: CA MRSA W46
CA MRSA W47 = tested on: CA MRSA W47
CA MRSA W48 = tested on: CA MRSA W48
CA MRSA W103 = tested on: CA MRSA W103
CA MRSA W113 = tested on: CA MRSA W113
CA MRSA W114 = tested on: CA MRSA W114
HA MRSA W231 = tested on: HA MRSA W231
HA MRSA W232 = tested on: HA MRSA W232
HA MRSA W240 = tested on: HA MRSA W240
[6] = Staphylococcus aureus, MRSA, read-out: MIC alone
[7] = APH2″-AAC6′, ECG with WQD-169 (Kuraridin)
[8] = Staphylococcus aureus, read-out: MIC 99.9
[9] = Staphylococcus aureus, read-out: MIC alone
[10] = ST239, ECG with WQD-169 (Kuraridin)

Compound: O=C(O[C@@H]1Cc2c(O)cc(O)cc2O[C@@H]1c1ccc(O)c(O)c1)c1cc(O)c(O)c(O)c1 [ECG, epicatechin gallate]
- FIC (CA-MRSA strain ST30; ST30, ECG with Kur): 0.0004
- MIC combine (CA-MRSA strain ST30; ST30, ECG with Kur): 0.25 µg/mL
- FIC (CA-MRSA strain ST30; ST30, ECG+Kur+Van): 0.0004
- MIC combine (CA-MRSA strain ST30; ST30, ECG+Kur+Van): 0.25 µg/mL
- MIC alone (CA-MRSA strain ST30; ST30, Table 5): 512 µg/mL
- MIC (CA-MRSA strain ST30; [6]): 512 µg/mL
- FIC ([1]; ECG+Kur+Fus): 0.008
- MIC combine ([1]; ECG+Kur+Fus): 0.25 µg/mL
- FIC ([1]; ECG+Kur, no Fus): 0.016
- MIC combine ([1]; ECG+Kur, no Fus): 8 µg/mL
- MIC [1, 6]: 512 µg/mL
- FIC ([2]; ECG+Kur+Fus): 0.004
- MIC combine ([2]; ECG+Kur+Fus): 0.25 µg/mL
- FIC ([2]; ECG+Kur, no Fus): 0.003
- MIC combine ([2]; ECG+Kur, no Fus): 16 µg/mL
- MIC [2, 6]: 512 µg/mL
- MIC alone ([3]; APH2 (gentamicin resistant)): 512 µg/mL
- FIC ([3]; APH2, ECG+Kur+Gen): 0.0005
- MIC combine ([3]; APH2, ECG+Kur+Gen): 0.25 µg/mL
- FIC ([3]; APH2, ECG+Kur, no Gen): 0.0009
- MIC combine ([3]; APH2, ECG+Kur, no Gen): 0.5 µg/mL
- FIC ([3]; APH2, Kuraridin with ECG): 0.0009
- MIC combine ([3]; APH2, Kuraridin with ECG): 0.5 µg/mL
- FIC ([3]; APH2″-AAC6′, ECG with WQD-164): 0.001
- MIC combine ([3]; APH2″-AAC6′, ECG with WQD-164): 1 µg/mL
- FIC ([3]; APH2″-AAC6′, ECG with WQD-165): 0.0009
- MIC combine ([3]; APH2″-AAC6′, ECG with WQD-165): 0.5 µg/mL
- FIC [3, 7]: 0.007
- MIC combine [3, 7]: 4 µg/mL
- FIC ([3]; APH2″-AAC6′, ECG with WQD-175): 0.0009
- MIC combine ([3]; APH2″-AAC6′, ECG with WQD-175): 0.5 µg/mL
- MIC90 ([3]; Staphylococcus aureus): 8 µg/mL
- MIC99 [3, 8]: > 512 µg/mL
- MIC [3, 9]: 512 µg/mL
- MIC alone ([3]; Strain APH2″-AAC6′, Table 9): 512 µg/mL
- MIC alone ([4]; ANT4 (fusidic acid resistant)): 512 µg/mL
- FIC ([4]; ECG+Kur+Fus): 0.0007
- MIC combine ([4]; ECG+Kur+Fus): 4 µg/mL
- FIC ([4]; ECG+Kur, no Fus): 0.03
- MIC combine ([4]; ECG+Kur, no Fus): 16 µg/mL
- FIC ([4]; Kuraridin with ECG): 0.03
- MIC combine ([4]; Kuraridin with ECG): 16 µg/mL
- MIC90 ([4]; Staphylococcus aureus): 8 µg/mL
- MIC99 [4, 8]: > 512 µg/mL
- MIC [4, 9]: 512 µg/mL
- FIC (MRSA SA-ST239; ST239, ECG with Kur): 0.004
- MIC combine (MRSA SA-ST239; ST239, ECG with Kur): 2 µg/mL
- FIC (MRSA SA-ST239; ST239, ECG with WQD-164): 0.001
- MIC combine (MRSA SA-ST239; ST239, ECG with WQD-164): 2 µg/mL
- FIC (MRSA SA-ST239; ST239, ECG with WQD-165): 0.0009
- MIC combine (MRSA SA-ST239; ST239, ECG with WQD-165): 0.5 µg/mL
- FIC (MRSA SA-ST239; [10]): 0.007
- MIC combine (MRSA SA-ST239; [10]): 4 µg/mL
- FIC (MRSA SA-ST239; ST239, ECG with WQD-175): 0.0009
- MIC combine (MRSA SA-ST239; ST239, ECG with WQD-175): 0.5 µg/mL
- FIC (MRSA SA-ST239; ST239, ECG+Kur+Van): 0.0004
- MIC combine (MRSA SA-ST239; ST239, ECG+Kur+Van): 0.25 µg/mL
- MIC alone (MRSA SA-ST239; ST239, Table 5): 512 µg/mL
- MIC90 (MRSA SA-ST239; Staphylococcus aureus, MRSA): 16 µg/mL
- MIC99 (MRSA SA-ST239; Staphylococcus aureus, MRSA, read-out: MIC 99.9): > 512 µg/mL
- MIC (MRSA SA-ST239; [6]): 512 µg/mL
- MIC alone (MRSA SA-ST239; Strain ST239, Table 9): 512 µg/mL
- MIC ([5]; ATCC25293 / ATCC25923, read-out: MIC alone): 512 µg/mL
- MIC90 ([5]; ATCC25923): 128 µg/mL
- MIC99 ([5]; ATCC25923, read-out: MIC 99.9): > 512 µg/mL
- MIC (CA MRSA W44; [6]): 512 µg/mL
- FIC (CA MRSA W44; W44, ECG with Kur): 0.004
- MIC combine (CA MRSA W44; W44, ECG with Kur): 2 µg/mL
- FIC (CA MRSA W44; W44, ECG+Kur+Van): 0.0004
- MIC combine (CA MRSA W44; W44, ECG+Kur+Van): 0.25 µg/mL
- MIC alone (CA MRSA W44; W44, Table 5): 512 µg/mL
- MIC (CA MRSA W45; [6]): 512 µg/mL
- FIC (CA MRSA W45; W45, ECG with Kur): 0.002
- MIC combine (CA MRSA W45; W45, ECG with Kur): 1 µg/mL
- FIC (CA MRSA W45; W45, ECG+Kur+Van): 0.0004
- MIC combine (CA MRSA W45; W45, ECG+Kur+Van): 0.25 µg/mL
- MIC alone (CA MRSA W45; W45, Table 5): 512 µg/mL
- MIC (CA MRSA W46; [6]): 512 µg/mL
- FIC (CA MRSA W46; W46, ECG with Kur): 0.015
- MIC combine (CA MRSA W46; W46, ECG with Kur): 8 µg/mL
- FIC (CA MRSA W46; W46, ECG+Kur+Van): 0.002
- MIC combine (CA MRSA W46; W46, ECG+Kur+Van): 1 µg/mL
- MIC alone (CA MRSA W46; W46, Table 5): 512 µg/mL
- MIC (CA MRSA W47; [6]): 512 µg/mL
- FIC (CA MRSA W47; W47, ECG with Kur): 0.004
- MIC combine (CA MRSA W47; W47, ECG with Kur): 2 µg/mL
- FIC (CA MRSA W47; W47, ECG+Kur+Van): 0.0004
- MIC combine (CA MRSA W47; W47, ECG+Kur+Van): 0.25 µg/mL
- MIC alone (CA MRSA W47; W47, Table 5): 512 µg/mL
- MIC (CA MRSA W48; [6]): 512 µg/mL
- FIC (CA MRSA W48; W48, ECG with Kur): 0.002
- MIC combine (CA MRSA W48; W48, ECG with Kur): 1 µg/mL
- FIC (CA MRSA W48; W48, ECG+Kur+Van): 0.002
- MIC combine (CA MRSA W48; W48, ECG+Kur+Van): 1 µg/mL
- MIC alone (CA MRSA W48; W48, Table 5): 512 µg/mL
- MIC (CA MRSA W103; [6]): 512 µg/mL
- FIC (CA MRSA W103; W103, ECG with Kur): 0.002
- MIC combine (CA MRSA W103; W103, ECG with Kur): 1 µg/mL
- MIC (CA MRSA W113; [6]): 512 µg/mL
- FIC (CA MRSA W113; W113, ECG with Kur): 0.002
- MIC combine (CA MRSA W113; W113, ECG with Kur): 1 µg/mL
- MIC (CA MRSA W114; [6]): 512 µg/mL
- FIC (CA MRSA W114; W114, ECG with Kur): 0.002
- MIC combine (CA MRSA W114; W114, ECG with Kur): 1 µg/mL
- MIC (HA MRSA W231; [6]): 512 µg/mL
- MIC alone (HA MRSA W231; W231 (gentamicin resistant)): 512 µg/mL
- FIC (HA MRSA W231; W231, ECG with Kur): 0.016
- MIC combine (HA MRSA W231; W231, ECG with Kur): 8 µg/mL
- FIC (HA MRSA W231; W231, ECG+Kur+Gen): 0.0004
- MIC combine (HA MRSA W231; W231, ECG+Kur+Gen): 0.25 µg/mL
- FIC (HA MRSA W231; W231, ECG+Kur, no Gen): 0.008
- MIC combine (HA MRSA W231; W231, ECG+Kur, no Gen): 4 µg/mL
- MIC alone (HA MRSA W231; W231, Table 5): 512 µg/mL
- MIC (HA MRSA W232; [6]): 512 µg/mL
- FIC (HA MRSA W232; W232, ECG with Kur): 0.008
- MIC combine (HA MRSA W232; W232, ECG with Kur): 4 µg/mL
- FIC (HA MRSA W232; W232, ECG+Kur+Van): 0.03
- MIC combine (HA MRSA W232; W232, ECG+Kur+Van): 8 µg/mL
- MIC alone (HA MRSA W232; W232, Table 5): 512 µg/mL
- MIC (HA MRSA W240; [6]): 512 µg/mL
- FIC (HA MRSA W240; W240, ECG with Kur): 0.008
- MIC combine (HA MRSA W240; W240, ECG with Kur): 4 µg/mL

— patent US11690810B2, “Combination treatment of bacterial infection” (The Chinese University of Hong Kong, priority 2018, dated 2023)
